{
  "source": "patent US20150141523A1",
  "about": "“COMPOUNDS FOR USE IN THE TREATMENT OF AUTOIMMUNE INFLAMMATORY DISEASE” (Venantius Limited, priority 2012, published 2015)",
  "key": {"[1]": {"system": "β-hexosaminidase release from RBL-2H3 cells", "conditions": "cited from earlier work"}, "BalbC mice": {"system": "BalbC mice", "assay": "Arachidonic acid mouse ear oedema model", "type": "in vivo", "conditions": "300 μg/ear in acetone, topical; arachidonic acid alone 86%", "method": "The arrachidonic mouse ear oedema model is an acute inflammation model based on activation of ecosanoid pathways. The mouse ear oedema model was performed using BalbC mice (25-35 g), of either sex. The ear was treated by the topical application (10 μl) of solvent (acetone 100%) or test drug (300 μg/ear in acetone) or Indomethacin (300 μg/ear in acetone). After one hour, oedema was induced by the topical application of arachidonic acid (10 μl at 0.4 g/ml in acetone). The width of each ear was measured, both before and 60 min after the induction of oedema, using a micrometer screw gauge. Ear oedema was calculated by comparing the ear width before and after induction of oedema and expressed as percentage normal. Animals were killed using CO2, without recovering from sedation."}, "Balb/C mice": {"system": "Balb/C mice", "assay": "Oxazolone contact hypersensitivity (CHS) mouse ear swelling", "type": "in vivo", "conditions": "15 mg/kg; vehicle 107%", "method": "Female Balb/C mice (30-40 gms) were sensitised on day 0 with 20 μl of 2% oxazolone in acetone on each ear (10 μl on the inner and outer aspects of both ears). All mice were challenged on day 5 with 20 μl of 2% oxazolone in acetone only on the right ear; again, 10 μl on both the inner and outer aspects of the ear. Immediately following this, the mice were treated with test compound. The test compound was administered in exactly the same way as the oxazolone, with 10 μl on each side of the right ear. […] For the […] group, acetone was administered. All animals were killed 24 hrs later and the percentage increase in ear swelling was calculated. This was done in two ways. The thickness of the unchallenged left ear and the challenged right ear were measured using a micrometer caliper (μm). The increase in weight of both ears was also measured using a 5 mm biopsy punch (mgs). The percentage increase in oedema was then calculated for both weight and thickness by expressing the difference between the unchallenged left ear and the challenged right ear as a percentage of the left ear control."}, "[2]": {"conditions": "RBL-2H3 cells, Inflamm. Res. 57 (2008)"}},
  "note": "Where two headings read alike, the source gives them in different places.",
  "data": [
    {"compound": "O[C@@H]1c2ccccc2C[C@]1(Cc1ccccc1)C1=Cc2ccccc2C1", "note": "(racemic) [Compound 5, (R,S and SR)2-Benzyl-2,3-dihydro-1H,1′H-2,2′-biinden-1-ol]", "values": [
      {"measurement": "inhibition of β-hexosaminidase release", "setting": "[1]; [2]", "result": "dose dependent inhibition"}
    ]},
    {"compound": "COc1ccc2c(c1)c(CC(=O)O)c(C)n2C(=O)c1ccc(Cl)cc1", "note": "[Indomethacin, reference compound]", "values": [
      {"measurement": "ear swelling (increase in ear thickness)", "setting": "BalbC mice", "result": 40, "unit": "%"}
    ]},
    {"compound": "C[C@@H]1C[C@H]2[C@@H]3CCC4=CC(=O)C=C[C@]4(C)[C@@]3(F)[C@@H](O)C[C@]2(C)[C@@]1(O)C(=O)CO", "note": "[dexamethasone, reference compound]", "values": [
      {"measurement": "increase in ear punch weight", "setting": "Balb/C mice", "result": 42, "unit": "%"}
    ]},
    {"compound": "(S,S and RR)2-Benzyl-2,3-dihydro-1H,1′H-2,2′-biinden-1-ol [Compound 6]", "values": [
      {"measurement": "inhibition of β-hexosaminidase release", "setting": "[1]; RBL-2H3 cells stimulated by calcium ionophore A23187, Bioorg. Med. Chem. Lett. 19(20), 2009", "result": "dose-dependant inhibition"},
      {"measurement": "inhibition of β-hexosaminidase release", "setting": "[1]; [2]", "result": "dose dependent inhibition"}
    ]}
  ]
}
